Assay results from patent publication US20200253196A1, “SOLVENTS FOR AGRICULTURAL APPLICATIONS AND PESTICIDE FORMULATIONS” (priority 2017, published 2020).

Experiment: Solubility of pesticides in solvents (pesticide powder added in 2% stepwise increments)
Type: physicochemical
Details: for Dissolving ability of Comparative Solvent B compared with Inventive Solvent 1: comparison Solvesso 150 vs ethyl 3-ethoxypropionate; for Dissolving ability of Comparative Solvent B compared with Inventive Solvent 1 / Dissolving ability of Comparative Solvent A compared with Inventive Solvent 1: in words; for Dissolving ability of Comparative Solvent A compared with Inventive Solvent 1: comparison xylene vs ethyl 3-ethoxypropionate; for Solubility in Comparative Solvent B: solvent Solvesso 150; for Solubility in Comparative Solvent B / Solubility in Inventive Solvent 1 / Solubility in Comparative Solvent A: concentration just prior to the one where the powder is not dissolved, no more than 2% lower than actual solubility; for Solubility in Inventive Solvent 1: solvent ethyl 3-ethoxypropionate; for Solubility in Comparative Solvent A: solvent xylene
Experimental: The solubility of various pesticides in these solvents are evaluated.
Each pesticide powder is added by solvent in 2% stepwise increments to the final pesticide concentration. Each pesticide reaches a concentration where the pesticide powder is not dissolved by the solvent.

| Structure (SMILES) | Dissolving ability of Comparative Solvent B compared with Inventive Solvent 1 | Dissolving ability of Comparative Solvent A compared with Inventive Solvent 1 | Solubility in Comparative Solvent B [weight %] | Solubility in Inventive Solvent 1 [weight %] | Solubility in Comparative Solvent A [weight %] |
| --- | --- | --- | --- | --- | --- |
| Cc1c(COC(=O)[C@@H]2[C@H](/C=C(\Cl)C(F)(F)F)C2(C)C)cccc1-c1ccccc1 (racemic) [Bifenthrin] | comparable dissolving ability | stronger dissolving ability | 44 | 43 | 45 |
| CC(C)N1C(=O)N(c2ccccc2)CS/C1=N\C(C)(C)C [Buprofezin] | comparable dissolving ability |  | 16 | 18 | 10 |
| CCOP(=S)(OCC)Oc1nc(Cl)c(Cl)cc1Cl [Chlopyrifos] |  | stronger dissolving ability | 54 | 63 | 70 |
| CCCCC(C#N)(Cn1cncn1)c1ccc(Cl)cc1 (stereo not shown) [Myclobutanil] |  |  | 23 | 39 | 27 |
| COC(=O)N(OC)c1ccccc1COc1ccn(-c2ccc(Cl)cc2)n1 [Pyraclostrobin] |  |  | 31 | 47 | 42 |
| CC(C)(C)C(O)(CCc1ccc(Cl)cc1)Cn1cncn1 (stereo not shown) [Tebuconazole] |  |  | 2.0 | 16 | 4.0 |
| CC(C)(C)C(=O)C(Oc1ccc(Cl)cc1)n1cncn1 (stereo not shown) [Triazolone] |  |  | 12 | 32 | 23 |
